Key:
[1] = 96.7 kPa, Liquid; for viscosity: Capillary tube (Ostwald / Ubbelohde) method; for mass density: Vibrating tube method
[2] = xn = mol fraction of the nth substance listed; settings: 96.7 kPa, Liquid, x2 = 0; for viscosity: Capillary tube (Ostwald / Ubbelohde) method; for mass density: Vibrating tube method

CCCCCCn1cc[n+](C)c1.[Cl-] [1-hexyl-3-methylimidazolium chloride]
[1]
Settings | mass density [kg/m3] | viscosity [mPa·s]
303.15 K | 1036.07 | 5718.5
308.15 K | 1033.22 | 3430.8
313.15 K | 1030.38 | 2146.1
318.15 K | 1027.56 | 1390.4
323.15 K | 1024.75 | 928.1
328.15 K | 1021.92 | 638.79
333.15 K | 1019.13 | 453.59
338.15 K | 1016.38 | 327.52
343.15 K | 1013.65 | 243.04
348.15 K | 1010.91 | 183.45
353.15 K | 1008.18 | 140.06

CC(=O)N(C)C [N,N-dimethylethanamide]
[1]
Settings | mass density [kg/m3] | viscosity [mPa·s]
303.15 K | 931.85 | 0.891
308.15 K | 927.26 | 0.834
313.15 K | 922.66 | 0.785
318.15 K | 918.06 | 0.739
323.15 K | 913.44 | 0.698
328.15 K | 908.81 | 0.661
333.15 K | 904.16 | 0.627
338.15 K | 899.53 | 0.598
343.15 K | 894.87 | 0.567
348.15 K | 890.19 | 0.541
353.15 K | 885.51 | 0.516

CC(=O)N(C)C [N,N-dimethylethanamide] + CCCCCCn1cc[n+](C)c1.[Cl-]
[2]
Settings | mass density [kg/m3] | viscosity [mPa·s]
303.15 K | 931.85 | 0.891
308.15 K | 927.26 | 0.834
313.15 K | 922.66 | 0.785
318.15 K | 918.06 | 0.739
323.15 K | 913.44 | 0.698
328.15 K | 908.81 | 0.661
333.15 K | 904.16 | 0.627
338.15 K | 899.53 | 0.598
343.15 K | 894.87 | 0.567
348.15 K | 890.19 | 0.541
353.15 K | 885.51 | 0.516

C[S+](C)[O-] [dimethyl sulfoxide]
[1]
Settings | mass density [kg/m3] | viscosity [mPa·s]
303.15 K | 1090.29 | 1.8
308.15 K | 1085.28 | 1.665
313.15 K | 1080.3 | 1.529
318.15 K | 1075.31 | 1.407
323.15 K | 1070.32 | 1.304
328.15 K | 1065.33 | 1.211
333.15 K | 1060.34 | 1.127
338.15 K | 1055.34 | 1.056
343.15 K | 1050.35 | 0.989
348.15 K | 1045.34 | 0.931
353.15 K | 1040.33 | 0.878

C[S+](C)[O-] [dimethyl sulfoxide] + CCCCCCn1cc[n+](C)c1.[Cl-]
[2]
Settings | mass density [kg/m3] | viscosity [mPa·s]
303.15 K | 1090.29 | 1.8
308.15 K | 1085.28 | 1.665
313.15 K | 1080.3 | 1.529
318.15 K | 1075.31 | 1.407
323.15 K | 1070.32 | 1.304
328.15 K | 1065.33 | 1.211
333.15 K | 1060.34 | 1.127
338.15 K | 1055.34 | 1.056
343.15 K | 1050.35 | 0.989
348.15 K | 1045.34 | 0.931
353.15 K | 1040.33 | 0.878

CN(C)C=O [dimethylformamide]
[1]
Settings | mass density [kg/m3] | viscosity [mPa·s]
303.15 K | 939.18 | 0.766
308.15 K | 934.41 | 0.723
313.15 K | 929.64 | 0.685
318.15 K | 924.86 | 0.651
323.15 K | 920.07 | 0.619
328.15 K | 915.26 | 0.589
333.15 K | 910.44 | 0.562
338.15 K | 905.6 | 0.537
343.15 K | 900.74 | 0.514
348.15 K | 895.87 | 0.493
353.15 K | 890.98 | 0.473

CN(C)C=O [dimethylformamide] + CCCCCCn1cc[n+](C)c1.[Cl-]
[2]
Settings | mass density [kg/m3] | viscosity [mPa·s]
303.15 K | 939.18 | 0.766
308.15 K | 934.41 | 0.723
313.15 K | 929.64 | 0.685
318.15 K | 924.86 | 0.651
323.15 K | 920.07 | 0.619
328.15 K | 915.26 | 0.589
333.15 K | 910.44 | 0.562
338.15 K | 905.6 | 0.537
343.15 K | 900.74 | 0.514
348.15 K | 895.87 | 0.493
353.15 K | 890.98 | 0.473

c1ccncc1 [pyridine]
[1]
Settings | mass density [kg/m3] | viscosity [mPa·s]
303.15 K | 973.09 | 0.843
308.15 K | 968.06 | 0.789
313.15 K | 963.02 | 0.741
318.15 K | 957.97 | 0.697
323.15 K | 952.9 | 0.658
328.15 K | 947.82 | 0.622
333.15 K | 942.72 | 0.59
338.15 K | 937.6 | 0.56
343.15 K | 932.46 | 0.533
348.15 K | 927.3 | 0.507
353.15 K | 922.12 | 0.485

c1ccncc1 [pyridine] + CCCCCCn1cc[n+](C)c1.[Cl-]
[2]
Settings | mass density [kg/m3] | viscosity [mPa·s]
303.15 K | 973.09 | 0.843
308.15 K | 968.06 | 0.789
313.15 K | 963.02 | 0.741
318.15 K | 957.97 | 0.697
323.15 K | 952.9 | 0.658
328.15 K | 947.82 | 0.622
333.15 K | 942.72 | 0.59
338.15 K | 937.6 | 0.56
343.15 K | 932.46 | 0.533
348.15 K | 927.3 | 0.507
353.15 K | 922.12 | 0.485
